Consider eight compounds from patent US10435435B2, “Quinstatin compounds” (THE ARIZONA BOARD OF REGENTS ON BEHALF OF ARIZONA STATE …, priority 2015, dated 2019).

Assay [1] deals with MCF-7 (breast) cancer cell line. The experiment in a line: NCI sulforhodamine B growth inhibition, MCF-7. As to conditions: MCF-7, 48 h. The assay is classed as cell-based, human. Here is the method: (§1) Next, serial dilutions of the compounds were added.
The subject of assay [2] is DU-145 (prostate) cancer cell line. The experiment in a line: NCI sulforhodamine B growth inhibition, DU-145. The assay is classed as cell-based, human. Particulars: DU-145, 48 h. The protocol:
as §1

Assay [3] deals with NCI-H460 (lung) cancer cell line. The experiment in a line: NCI sulforhodamine B growth inhibition, NCI-H460. The assay is classed as cell-based, human. Particulars: NCI-H460, 48 h. Here is the method:
as §1

Assay [4] has as its system BXPC-3 (pancreas) cancer cell line. The experiment in a line: NCI sulforhodamine B growth inhibition, BXPC-3. The assay is classed as cell-based, human. As to conditions: BXPC-3, 48 h. The protocol:
as §1

Assay [5] deals with SF-268 (CNS) cancer cell line. The experiment in a line: NCI sulforhodamine B growth inhibition, SF-268. Type of assay: cell-based, human. Particulars: SF-268, 48 h. The protocol:
as §1

Assay [6] deals with KM20L2 (colon) cancer cell line. In words: NCI sulforhodamine B growth inhibition, KM20L2. The assay is classed as cell-based, human. Particulars: KM20L2, 48 h. Here is the method:
as §1

Another assay relates to Human Cancer Cell Lines. The protocol: Inhibition of human cancer cell growth was assessed using the National Cancer Institute's standard sulforhodamine B assay as previously described.^10 In summary, cells in a 5% fetal bovine serum/RPMI1640 medium were inoculated in 96-well plates and incubated for 24 hrs. Next, serial dilutions of the compounds were added. After 48 h, the plates were fixed with trichloroacetic acid, stained with sulforhodamine B, and read with an automated microplate reader.

Where [7] appears, read: bracketed value, read-out: GI50.

Like-named read-outs stand apart in the source and are kept apart here. Square brackets hold non-standard residues; d marks the D form. Peptide text beside a SMILES is read from it. * marks the point of attachment. Dolaproine = CO[C@@H]([C@@H]1CCCN1)[C@@H](C)C(=O)O; Dil = CC[C@H](C)[C@H](NC)[C@@H](CC(=O)O)OC; X1 = C[C@@H](N*)[C@@H](O)c1ccccc1; NMeV = CN[C@H](C(=O)O)C(C)C

For orientation: GI50 means the concentration that inhibits growth by half. For `CC[C@H](C)[C@@H]([C@@H](CC(=O)N1CCC[C@H]1[C@H](OC)[C@@H](C)C(=O)N[C@H](C)[C@@H](O)c1ccccc1)OC)N(C)C(=O)[C@@H](NC(=O)[C@H](C(C)C)N(C)C)C(C)C` [Auristatin E, auristatin E, reference compound], the concentration for 50% growth inhibition (GI50) in assay [1] was found to be 0.17 ng/mL; in assay [1] (setting [7]) it was 0.232 nM; in assay [2], 0.31 ng/mL; in assay [2] (setting [7]), 0.424 nM; in assay [3] it was 0.39 ng/mL; in assay [3] (setting [7]), 0.533 nM. Also, the GI50 in assay [4] is more than 1 ng/mL; in assay [4] (setting [7]) it was more than 1.37 nM; in assay [5], 0.36 ng/mL; in assay [5] (setting [7]), 0.492 nM; in assay [6], 0.36 ng/mL; in assay [6] (setting [7]), 0.492 nM.
`CC[C@H](C)[C@@H]([C@@H](CC(=O)N1CCC[C@H]1[C@H](OC)[C@@H](C)C(=O)N[C@H](C)[C@@H](O)c1ccccc1)OC)N(C)C(=O)[C@@H](NC(=O)[C@@H](NC)C(C)C)C(C)C` [Desmethylauristatin E, desmethyl auristatin E, reference compound] (H-[NMeV]V[Dil][Dolaproine]-X1): the GI50 is 0.29 ng/mL in assay [1]; 0.404 nM in assay [1] (setting [7]); 0.3 ng/mL in assay [2]; 0.418 nM in assay [2] (setting [7]); 0.49 ng/mL in assay [3]; 0.683 nM in assay [3] (setting [7]). Further, the GI50 in assay [4] was more than 1 ng/mL; in assay [4] (setting [7]), more than 1.39 nM; in assay [5] it was 0.31 ng/mL; in assay [5] (setting [7]), 0.432 nM; in assay [6], 0.43 ng/mL; in assay [6] (setting [7]), 0.599 nM.
Take `CC[C@H](C)[C@@H]([C@@H](CC(=O)N1CCC[C@H]1[C@H](OC)[C@@H](C)C(=O)N[C@@H](Cc1ccccc1)c1nccs1)OC)N(C)C(=O)[C@@H](NC(=O)[C@H](C(C)C)N(C)C)C(C)C` [Dolastatin 10, dolastatin 10, reference compound]: the concentration for 50% growth inhibition (GI50) in assay [1] is 0.0042 ng/mL; in assay [1] (setting [7]) it was 0.005 nM; in assay [2] it was 0.0052 ng/mL; in assay [2] (setting [7]), 0.007 nM; in assay [3], 0.18 ng/mL; in assay [3] (setting [7]), 0.229 nM. In addition, the GI50 was 0.04 ng/mL in assay [4]; 0.051 nM in assay [4] (setting [7]); 0.0043 ng/mL in assay [5]; 0.006 nM in assay [5] (setting [7]); 0.008 ng/mL in assay [6]; 0.01 nM in assay [6] (setting [7]).
On to `CC[C@H](C)[C@@H]([C@@H](CC(=O)N1CCC[C@H]1[C@H](OC)[C@@H](C)C(=O)NCCc1ccc2ccccc2n1)OC)N(C)C(=O)[C@@H](NC(=O)[C@H](C(C)C)N(C)C)C(C)C` [Quinstatin 2, 2-(1′-Dov-Val-Dil-Dap-2′-ethyl)-quinoline], for which the GI50 was determined as 0.31 ng/mL in assay [1]; 0.412 nM in assay [1] (setting [7]); 0.31 ng/mL in assay [2]; 0.412 nM in assay [2] (setting [7]); 5.1 ng/mL in assay [3]; 6.78 nM in assay [3] (setting [7]). Moreover, the GI50 stood at 9.3 ng/mL in assay [4]; 12.3 nM in assay [4] (setting [7]); 0.23 ng/mL in assay [5]; 0.306 nM in assay [5] (setting [7]); 0.33 ng/mL in assay [6]; 0.438 nM in assay [6] (setting [7]). Also, the “increase in cancer cell growth inhibition as compared to auristatin AQ” value in the assay with Human Cancer Cell Lines (comparison with auristatin AQ) is “ten to one hundred times”.
As to `CC[C@H](C)[C@@H]([C@@H](CC(=O)N1CCC[C@H]1[C@H](OC)[C@@H](C)C(=O)NCCc1cnc2ccccc2c1)OC)N(C)C(=O)[C@@H](NC(=O)[C@H](C(C)C)N(C)C)C(C)C` [Quinstatin 3, 3-(1′-Dov-Val-Dil-Dap-2′-ethyl)-quinoline], the GI50 was 0.23 ng/mL in assay [1]; 0.31 nM in assay [1] (setting [7]); 0.2 ng/mL in assay [2]; 0.26 nM in assay [2] (setting [7]); 31 ng/mL in assay [3]; 41.2 nM in assay [3] (setting [7]). Further, the GI50 amounted to 21 ng/mL in assay [4]; 27.9 nM in assay [4] (setting [7]); 0.29 ng/mL in assay [5]; 0.38 nM in assay [5] (setting [7]); 0.4 ng/mL in assay [6]; 0.53 nM in assay [6] (setting [7]).
Take `CC[C@H](C)[C@@H]([C@@H](CC(=O)N1CCC[C@H]1[C@H](OC)[C@@H](C)C(=O)NCCc1ccc2ncccc2c1)OC)N(C)C(=O)[C@@H](NC(=O)[C@H](C(C)C)N(C)C)C(C)C` [Quinstatin 6, Dov-Val-Dil-Dap-2-(quinolin-6-yl)ethylamine]: the GI50 in assay [1] was 0.4 ng/mL; in assay [1] (setting [7]) it was 0.532 nM; in assay [2], 0.3 ng/mL; in assay [2] (setting [7]) it was 0.399 nM; in assay [3], 4.3 ng/mL; in assay [3] (setting [7]), 5.71 nM. The GI50 in assay [4] was 2 ng/mL; in assay [4] (setting [7]), 2.66 nM; in assay [5], 0.3 ng/mL; in assay [5] (setting [7]), 0.399 nM; in assay [6], 0.39 ng/mL; in assay [6] (setting [7]) it was 0.518 nM.
For `CC[C@H](C)[C@@H]([C@@H](CC(=O)N1CCC[C@H]1[C@H](OC)[C@@H](C)C(=O)NCCc1ccc2cccnc2c1)OC)N(C)C(=O)[C@@H](NC(=O)[C@H](C(C)C)N(C)C)C(C)C` [Quinstatin 7, 7-(1′-Dov-Val-Dil-Dap-2′-ethyl)-quinoline], the GI50 in assay [1] turned out to be 0.03 ng/mL; in assay [1] (setting [7]) it was 0.039 nM; in assay [2], 0.03 ng/mL; in assay [2] (setting [7]) it was 0.04 nM; in assay [3], 11 ng/mL; in assay [3] (setting [7]) it was 14.6 nM. The GI50 in assay [4] stood at 3.1 ng/mL; in assay [4] (setting [7]), 4.12 nM; in assay [5], 0.024 ng/mL; in assay [5] (setting [7]), 0.032 nM; in assay [6] it was 0.041 ng/mL; in assay [6] (setting [7]), 0.054 nM.
On to `CC[C@H](C)[C@@H]([C@@H](CC(=O)N1CCC[C@H]1[C@H](OC)[C@@H](C)C(=O)NCCc1cccc2cccnc12)OC)N(C)C(=O)[C@@H](NC(=O)[C@H](C(C)C)N(C)C)C(C)C` [Quinstatin 8, 8-(1′-Dov-Val-Dil-Dap-2′-ethyl)-quinoline], for which the GI50 was 0.04 ng/mL in assay [1]; 0.053 nM in assay [1] (setting [7]); 0.04 ng/mL in assay [2]; 0.053 nM in assay [2] (setting [7]); 0.9 ng/mL in assay [3]; 1.19 nM in assay [3] (setting [7]). Further, the GI50 in assay [4] stood at 0.5 ng/mL; in assay [4] (setting [7]), 0.425 nM; in assay [5], 0.023 ng/mL; in assay [5] (setting [7]), 0.03 nM; in assay [6] it was 0.04 ng/mL; in assay [6] (setting [7]), 0.053 nM. The “inhibition level compared with dolastatin 10” value in the assay on Human Cancer Cell Lines (in one of the experiments) is “at the dolastatin 10 level, but not consistently”.
